± gives the expanded uncertainty stated by the source.
Columns and labels:
[1] = Crystal; DTA
[2] = Molar enthalpy of transition or fusion; conditions: Crystal; DSC

## O=C(O)/C=C/C(=O)O.OCCOCCN1CCN(C2=Nc3ccccc3Sc3ccccc32)CC1.OCCOCCN1CCN(C2=Nc3ccccc3Sc3ccccc32)CC1 [quetiapine fumarate]
[1]
  Normal melting temperature: 173.47 ± 0.61 °C
[2]
  Molar enthalpy of transition or fusion: 74.4 ± 2 kJ/mol
